Reference: patent US6552080B1, “Fungicidal compounds having a fluorovinyl-or fluoropropenyl-oxyphenyloxime moiety and process for the preparation thereof” (Korea Research Institute of Chemical Technology, priority 1999, dated 2003)
Read-outs that look alike come from different tables or passages of the source.

Experiments:
Erysiphae graminis = assay: Fungicidal activity against Barley Powdery Mildew (BPM) disease; assay type: in vivo; conditions: Barley Powdery Mildew
Puccinia recondita = assay: Fungicidal activity against Wheat Leaf Rust (WLR) disease; assay type: in vivo; conditions: Wheat Leaf Rust
Rhizoctonia solani AG-1 = assay: Fungicidal activity against Rice Sheath Blight (RSB) disease; conditions: Rice Sheath Blight
Experimental: To examine fungicidal activity of the compounds of the present invention, each of the compounds listed in Table 3 and 4 was dissolved in 10% acetone to a concentration of 250 ppm, and Tween-20 was added thereto to a concentration of 250 or 500 ppm. 50 ml of the resulting solution was sprayed on leaves of a host plant. The plant was kept at room temperature for 24 hours to let the solvent evaporate, and then, a pathogenic fungus was inoculated thereonto. The plant was held in a humidity chamber for 24 hours, transferred to an plant growth room kept at 20 to 27° C. and a relative humidity of 60 to 80% and kept to induce disease. […] This procedure was repeated twice for each test. 10% Acetone solution containing 250 ppm of Tween-20 was used as a control.
The fungicidal activity of the compound of the present invention is repressed by a control value (C.V.) calculated as; [formula]
Rhizoctonia solani AG-1 was cultured on a PDA medium (potato 200 g, dextrose 20 g, agar 20 g and distilled water 1 ? for 3 days and the agar disc(diameter 0.6 cm) was inoculated and cultured on sterilized wheat bran medium in a 1 L bottle at 26 to 28° C. for 7 days. A mycelial mass was ground using a homogenizer, inoculated uniformly on soil of a pot wherein a Nakdong rice plant having 2 or 3 leaves and an height of 5 cm grew, and kept in humidity polyvinyl chamber for 5 days to induce RSB. L.A. on a leaf sheath was measured to calculate an C.V.

Botrytis cinerae = assay: Fungicidal activity against Cucumber Gray Mold Rot (CGM) disease; assay type: in vivo; conditions: Cucumber Gray Mold Rot; concentration 50 ppm
Experimental: Botrytis cinerae, which was isolated from cucumber infected thereby, was inoculated on a PDA agar medium and cultured under a 12L/12D cycle at 25° C. for 15 days to form spore. The spores were scraped, filtered through a gauze and then suspended in potato dextrose liquid medium at a concentration of 1×10^6 spore/ml. The spore suspension was sprayed on a cucumber plant having one leaf. The cucumber plant was held in a humidified room at 20° C. for 3 days. L.A. on a leaf was measured to calculate an C.V.

[1] = system: Pyricularia oryzae Carvara KA301; assay type: in vivo; conditions: Rice Blast
Phytophthora infestans = assay type: in vivo; conditions: Tomato Late Blight

Row | SMILES | BPM (Fungicidal Activities, C.V.) (Erysiphae graminis; concentration 2 ppm) [%] | BPM (Fungicidal Activities, C.V.) (Erysiphae graminis; concentration 10 ppm) [%] | BPM (Fungicidal Activities, C.V.) (Erysiphae graminis; concentration 50 ppm) [%] | WLR (Fungicidal Activities, C.V.) (Puccinia recondita; concentration 2 ppm) [%] | WLR (Fungicidal Activities, C.V.) (Puccinia recondita; concentration 10 ppm) [%] | WLR (Fungicidal Activities, C.V.) (Puccinia recondita; concentration 50 ppm) [%] | RSB (Fungicidal Activities, C.V.) (Rhizoctonia solani AG-1; concentration 50 ppm) [%] | CGM (Fungicidal Activities, C.V.) (Botrytis cinerae) [%] | RCV (Fungicidal Activities, C.V.) ([1]; concentration 2 ppm) [%] | RCV (Fungicidal Activities, C.V.) ([1]; concentration 10 ppm) [%] | RCV (Fungicidal Activities, C.V.) ([1]; concentration 50 ppm) [%] | TLB (Fungicidal Activities, C.V.) (Phytophthora infestans; concentration 50 ppm) [%] | RSB (Fungicidal Activities, C.V.) (Rhizoctonia solani AG-1; concentration 2 ppm) [%] | RSB (Fungicidal Activities, C.V.) (Rhizoctonia solani AG-1; concentration 10 ppm) [%] | TLB (Fungicidal Activities, C.V.) (Phytophthora infestans; concentration 2 ppm) [%]
1 | CO/C=C(/C(=O)OC)c1ccccc1CON=Cc1cccc(OC(F)=Cc2ccccc2)c1 [Compound 1] | 99 | 100 | 100 | 96 | 100 | 100 | 65 | 69 | 71 | 86 | 100 | 12 | – | – | –
2 | COC=C(C(=O)OC)c1ccccc1CON=Cc1cccc(OC(F)=Cc2cccc(C)c2)c1 [Compound 2] | 98 | 99 | 100 | 97 | 100 | 100 | 60 | 17 | 33 | 86 | 93 | 85 | – | – | –
3 | COC=C(C(=O)OC)c1ccccc1CON=Cc1cccc(OC(F)=Cc2ccc(C)cc2)c1 [Compound 3] | 86 | 99 | 100 | 96 | 98 | 100 | 60 | 46 | 0 | 80 | 100 | 84 | – | – | –
4 | COC=C(C(=O)OC)c1ccccc1CON=Cc1cccc(OC(F)=Cc2cc(C)cc(C)c2)c1 [Compound 5] | 98 | 100 | 100 | 96 | 100 | 100 | 55 | 17 | – | – | 41 | 28 | – | – | –
5 | CCc1ccc(C=C(F)Oc2cccc(C=NOCc3ccccc3C(=COC)C(=O)OC)c2)cc1 [Compound 6] | 97 | 99 | 100 | 98 | 100 | 100 | 75 | 44 | 8 | 58 | 99 | 33 | – | – | –
6 | COC=C(C(=O)OC)c1ccccc1CON=Cc1cccc(OC(F)=Cc2ccc(OC)cc2)c1 [Compound 9] | 55 | 99 | 100 | 95 | 98 | 100 | 50 | 53 | 8 | 83 | 100 | 12 | – | – | –
7 | COC=C(C(=O)OC)c1ccccc1CON=Cc1cccc(OC(F)=Cc2cccc(F)c2)c1 [Compound 11] | 98 | 99 | 100 | 97 | 100 | 100 | 40 | 17 | 33 | 86 | 100 | 85 | – | – | –
8 | COC=C(C(=O)OC)c1ccccc1CON=Cc1cccc(OC(F)=Cc2ccc(F)cc2)c1 [Compound 12] | 98 | 100 | 100 | 100 | 100 | 100 | 70 | 52 | 33 | 93 | 98 | 83 | – | – | –
9 | COC=C(C(=O)OC)c1ccccc1CON=Cc1cccc(OC(F)=Cc2cccc(Cl)c2)c1 [Compound 13] | 99 | 100 | 100 | 99 | 100 | 100 | 70 | 36 | 41 | 86 | 93 | 46 | – | – | –
10 | COC=C(C(=O)OC)c1ccccc1CON=Cc1cccc(OC(F)=Cc2ccc(Cl)cc2)c1 [Compound 14] | 99 | 100 | 100 | 96 | 99 | 100 | 75 | 7 | 58 | 86 | 100 | 12 | – | – | –
11 | CON=C(C(=O)OC)c1ccccc1CON=Cc1cccc(OC(F)=Cc2ccccc2)c1 [Compound 24] | 95 | 100 | 100 | 95 | 97 | 99 | 95 | 50 | 28 | 88 | 97 | 33 | 44 | 72 | –
12 | CON=C(C(=O)OC)c1ccccc1CON=Cc1cccc(OC(F)=Cc2ccc(C)cc2)c1 [Compound 25] | 93 | – | 100 | 95 | – | 100 | 40 | 9 | 66 | – | 98 | 99 | 15 | – | 75
13 | CON=C(C(=O)OC)c1ccccc1CON=Cc1cccc(OC(F)=Cc2ccc(OC)cc2)c1 [Compound 26] | – | – | 100 | – | – | 93 | 77 | 77 | – | – | 95 | 90 | – | – | –
